Measured values from patent US7786141B2 (Vertex Pharmaceuticals Incorporated, priority 2004, dated 2010).
Where two headings read alike, the source gives them in different places.

Assays:
M1 muscarinic receptor = target: T1, M1 muscarinic receptor (Homo sapiens, UniProt P11229); assay: Functional mobilization of intracellular calcium (FLIPR) in M1-CHO cells; type: cell-based
T1 construct: expressed in transfected cells; host or cells: CHO (M1-CHO)
T1 sequence (P11229 1-460): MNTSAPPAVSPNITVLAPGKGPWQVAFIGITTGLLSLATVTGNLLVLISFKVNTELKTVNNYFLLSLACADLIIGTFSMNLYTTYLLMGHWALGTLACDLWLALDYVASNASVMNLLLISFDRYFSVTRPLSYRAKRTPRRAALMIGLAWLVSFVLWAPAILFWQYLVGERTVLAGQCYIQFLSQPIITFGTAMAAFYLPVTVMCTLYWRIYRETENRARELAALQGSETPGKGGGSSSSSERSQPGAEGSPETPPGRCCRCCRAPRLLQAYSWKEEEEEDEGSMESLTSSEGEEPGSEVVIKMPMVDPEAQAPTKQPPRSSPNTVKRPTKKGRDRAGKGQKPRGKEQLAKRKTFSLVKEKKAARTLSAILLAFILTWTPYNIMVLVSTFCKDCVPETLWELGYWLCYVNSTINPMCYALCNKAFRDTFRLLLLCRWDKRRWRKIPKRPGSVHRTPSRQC
Experimental: Functional Mobilization of Intracellular Calcium to Determine Muscarinic Receptor Activity:
CHO cells expressing muscarinic receptors (M1 to M5) are grown as monolayers in tissue culture flasks at 37° C. in a humidified atmosphere containing 5% CO2 and passaged every 3-5 days. The growth media is Dulbecco's modified eagles medium (DMEM, Gibco Cat# 12430-054), containing 25 mM Hepes and supplemented with Fetal Bovine Serum (Hyclone, cat# SH30071.03), 0.1 mM of MEM non-essential amino acids (GIBCO, Cat# 11140-050), 1 mM MEM Sodium Pyruvate (GIBCO Cat# 11360-070) and 100 units/ml of Penicillin G and 100 μg/ml of Streptomycin (GIBCO Cat# 15140-122). The recombinant muscarinic receptor cell lines are grown under antibiotic pressure with media containing 25 μg/ml zeocin and 500 μg/ml G418 (M1-CHO), 4 μg/ml puromycin, 50 μg/ml zeocin and 2.5 μg/ml blasticidin (M2 and M4-CHO) or 50 μg/ml zeocin and 4 μg/ml puromycin (M3 and M5-CHO).
Cells are harvested at 80-90% confluence using Versene (GIBCO Cat# 15040-066), collected by centrifugation and seeded 18-24 hrs prior to running the calcium assay at a density of 5,000 cells/well in back-walled, clear-bottomed 384-well plates (BD Biocoat, poly-D-lysine, Cat#356663). The day of the experiment, the cells are washed with a plate washer (Bioteck Instruments, ELX 405) using bath 1 buffer (140-mM NaCl, 4.5-mM KCl, 2-mM CaCl2, 1-mM MgCl2, 10-mM Hepes-Na, 10-mM Glucose, pH 7.4, with NaOH) containing 1 mM Probenecid. Next, the calcium dye Fluo-3 (25 μl/well of Fluo-3 AM at 4 μM, Molecular Probes F-1241, in Bath 1 buffer containing 1 mM Probenecid) is added to the 25 μl of Bath 1 remaining in each well after the plate wash and the dye is loaded at 37° C. in the tissue culture incubator for 60-90 min. The fluorescent dye is removed using the plate washer with Bath 1 containing 1 mM Probenecid, leaving 25 μl/well of this solution after the wash. Alternatively, cells can be loaded with the calcium indicator from Molecular Devices (Calcium 3 Assay Reagents, Cat # R7181) adding 5 μl of a 5× solution dye in Bath 1 containing 1 mM Probenecid (10 ml per dye flask cat# R7182 to generate a solution 20×) to 20 μl of the same buffer. After loading for 60 min, the experiment can be run without having to remove the dye.
Compounds are prepared at a 2× fold concentration in a 96-well plate (round bottom, Costar Corning cat# 3656), by reconstituting the pre-spotted compounds in bath 1 containing 1 mM probenecid. The final concentration DMSO is 0.5%, and the amount of DMSO is normalized across the assay plate. To determine an agonist action of the compounds on muscarinic receptors, the reconstituted compounds are added (25 μl compound/well) to the cell assay plate (containing 25 μl/well) using the multi-channel robotic system of the FLIPR 3 Instrument (Molecular Devices, Sunnyvale, Calif.). To determine a functional inhibitory action of the compounds on muscarinic receptors, the reconstituted compounds are added (25 μl compound/well) to the assay plate and pre-incubated for 15 min prior to adding 25 μl of Carbachol at 3× the EC80 for each muscarinic subtype. Alternatively, the compounds can be co-applied simultaneously with the agonist. In both assay modes, the fluorescence is recorded for 60 sec (excitation wavelength is […] and emission wavelength 540 nm) using the FLIPR 3 instrument.
The potency, efficacy and selectivity of the muscarinic compounds were evaluated by screening the compound activity across the whole family (M1 to M5 cells). Compounds were also screened for activity on other proteins such as other GPCRs and ion channels to determine selectivity on M4 receptors.

M4 muscarinic receptor = target: T2, M4 muscarinic receptor (Homo sapiens, UniProt P08173); assay: Functional mobilization of intracellular calcium (FLIPR) in M4-CHO cells; type: cell-based
T2 construct: expressed in transfected cells; host or cells: CHO (M4-CHO)
T2 sequence (P08173 1-479): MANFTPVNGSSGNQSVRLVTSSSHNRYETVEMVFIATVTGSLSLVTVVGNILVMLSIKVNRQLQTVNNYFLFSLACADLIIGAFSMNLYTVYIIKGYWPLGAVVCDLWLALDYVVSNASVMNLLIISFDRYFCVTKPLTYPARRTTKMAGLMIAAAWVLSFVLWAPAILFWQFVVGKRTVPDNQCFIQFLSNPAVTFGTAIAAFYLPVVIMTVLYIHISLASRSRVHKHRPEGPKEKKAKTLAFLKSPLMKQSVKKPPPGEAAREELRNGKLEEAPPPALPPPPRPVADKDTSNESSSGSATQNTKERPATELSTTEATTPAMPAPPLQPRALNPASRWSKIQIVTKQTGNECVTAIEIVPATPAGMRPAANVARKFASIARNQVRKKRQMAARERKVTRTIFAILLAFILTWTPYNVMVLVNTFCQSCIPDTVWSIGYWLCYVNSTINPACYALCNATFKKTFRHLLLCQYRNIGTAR
How it was run: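 CHO cells stably expressing human M1 or M4 receptor were loaded with Fluo-3 AM (or Calcium 3 dye) in Hepes-buffered saline, pH 7.4, with 1 mM probenecid, 0.5% final DMSO. Agonist mode: compound added directly; antagonist mode: 15 min preincubation before carbachol at EC80. FLIPR fluorescence recorded 60 sec.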

[1] = M1 receptor, calcium mobilization
[2] = M1 receptor, calcium mobilization, read-out: M1 Efficacy
[3] = M4 receptor, calcium mobilization
[4] = M4 receptor, calcium mobilization, read-out: M4 Efficacy
[5] = Table 4, 100% efficacy is the maximum response obtained with the Carbachol control
[6] = Table 4, modulating M1 receptor
[7] = Table 4, modulating M4 receptor
[8] = Table 4, M1 receptor, calcium mobilization (FLIPR)
[9] = Table 4, M4 receptor, calcium mobilization (FLIPR)

Structure (SMILES)	M1 Activity (M1 muscarinic receptor; [1])	Emax (M1 muscarinic receptor; [2])	M4 Activity (M4 muscarinic receptor; [3])	Emax (M4 muscarinic receptor; [4])	Emax (M1 muscarinic receptor; [5])	M1 Activity (M1 muscarinic receptor; [6])	Emax (M4 muscarinic receptor; [5])	M4 Activity (M4 muscarinic receptor; [7])	further results
CC(=O)NC1CC2(CCN(C[C@H]3C[C@H]4CC[C@H]3C4)CC2)c2ccccc21 (stereo partly drawn) [compound 161]	xx (activity was measured to be between 0.1 μM and 1.0 μM)	> 85%	x (activity was measured to be greater than 1.0 μM)	> 85%					
CC(=O)N1CC2(CCN(C3CC4CCC(C3)N4C(=O)OC(C)C)CC2)c2cc(F)ccc21 (stereo not drawn) [compound 94]	xxx (activity was measured to be less than 0.1 μM)	< 65%	xx (activity was measured to be between 0.1 μM and 1.0 μM)	< 65%					
COC(=O)N1C2CCC1CC(N1CCC3(CC1)CN(S(C)(=O)=O)c1ccc(F)cc13)C2 (stereo not drawn) [compound 383]									EC50 (M1 muscarinic receptor; M1-CHO cells, calcium mobilization (FLIPR)): < 0.1 µM; Emax (M1 muscarinic receptor; M1-CHO cells, calcium mobilization (FLIPR), read-out: M1 Efficacy): 65 to 85%; EC50 (M4 muscarinic receptor; M4-CHO cells, calcium mobilization (FLIPR)): 0.1 to 1 µM; Emax (M4 muscarinic receptor; M4-CHO cells, calcium mobilization (FLIPR), read-out: M4 Efficacy): < 65%
CC(=O)N1CC2(CCN(C3CCN(c4cncc(C)n4)CC3)CC2)c2ccccc21 [compound 489]					25 to 100%	xxx (activity was measured to be less than 2.0 μM)	25 to 100%	xxx (activity was measured to be less than 2.0 μM)	
CCOC(=O)N1CCC(N2CCC3(CC2)CN(c2cccnc2)c2ccc(F)cc23)CC1 [compound 941]					25 to 100%		25 to 100%		M1 Activity (M1 muscarinic receptor; [8]): xxx (activity was measured to be less than 2.0 μM); M4 Activity (M4 muscarinic receptor; [9]): xxx (activity was measured to be less than 2.0 μM)
CCCOC(=O)N1CCC(N2CCC3(CC2)CN(C(C)=O)c2ccc(C)cc23)CC1 [compound 252]	x (activity was measured to be greater than 1.0 μM)	< 65%	x (activity was measured to be greater than 1.0 μM)	65 to 85%					
CC(=O)N[C@H]1CC2(CCN(C3CCOCC3)CC2)c2ccccc21 [compound 206]	xxx (activity was measured to be less than 0.1 μM)	65 to 85%	x (activity was measured to be greater than 1.0 μM)	< 65%					
CCOC(=O)N1C2CCC1CC(N1CCC3(CC[C@H](NC(=O)N(C)C)c4ccccc43)CC1)C2 (stereo partly drawn) [compound 503]					25 to 100%	xxx (activity was measured to be less than 2.0 μM)	25 to 100%	xxx (activity was measured to be less than 2.0 μM)	
CCCc1ccc2c(c1)C1(CCN(C3CCN(C(=O)OCC)CC3)CC1)CN2C(C)=O [compound 74]	xxx (activity was measured to be less than 0.1 μM)	65 to 85%	xx (activity was measured to be between 0.1 μM and 1.0 μM)	65 to 85%					
CCOC(=O)N1CCC(CN2CCC3(CC2)CN(C(C)=O)c2ccc(S(C)(=O)=O)cc23)CC1 [compound 948]					< 25%		< 25%		M1 Activity (M1 muscarinic receptor; [8]): x (activity was measured to be greater than 5.0 μM); M4 Activity (M4 muscarinic receptor; [9]): x (activity was measured to be greater than 5.0 μM)
CN(C)C(=O)CN1CC2(CCN(C[C@H]3C[C@H]4C=CC3C4)CC2)c2cc(F)ccc21 [compound 734]					25 to 100%	xxx (activity was measured to be less than 2.0 μM)	25 to 100%	xxx (activity was measured to be less than 2.0 μM)	
CCO/N=C1\CC2(CCN(CC3CCCCC3)CC2)c2cc(Cl)ccc21 [compound 702]					25 to 100%	x (activity was measured to be greater than 5.0 μM)	25 to 100%	x (activity was measured to be greater than 5.0 μM)	
CN(C)C(=O)N1CC2(CCN(C[C@H]3CCN(C(=O)OCC4CC4)C3)CC2)c2cc(F)ccc21 [compound 651]					25 to 100%	xxx (activity was measured to be less than 2.0 μM)	25 to 100%	xxx (activity was measured to be less than 2.0 μM)	
CCOC(=O)N1CCC(N2CCC3(CC2)CN(C(=O)CCC(C)=O)c2ccc(F)cc23)CC1 [compound 851]					25 to 100%		25 to 100%		M1 Activity (M1 muscarinic receptor; [8]): xxx (activity was measured to be less than 2.0 μM); M4 Activity (M4 muscarinic receptor; [9]): xxx (activity was measured to be less than 2.0 μM)
CCOC(=O)N1CCC(N2CCC3(CC2)CN(C(C)=O)c2c(C)cc(C)cc23)CC1 [compound 610]					25 to 100%	xxx (activity was measured to be less than 2.0 μM)	25 to 100%	xxx (activity was measured to be less than 2.0 μM)	
CCOC(=O)N1CCC(CN2CCC3(CC2)CN(C(C)=O)c2c(C(F)(F)F)cccc23)CC1 [compound 529]					25 to 100%	x (activity was measured to be greater than 5.0 μM)	25 to 100%	xx (activity was measured to be between 2.0 μM and 5.0 μM)	
c1ccc2c(c1)NCC21CCN(CC2CC3CCC2C3)CC1 (stereo not drawn) [compound 110]	xxx (activity was measured to be less than 0.1 μM)	< 65%	xx (activity was measured to be between 0.1 μM and 1.0 μM)	< 65%					
CC(=O)N1CC2(CCN(C3CC4CCC(C3)N4C(=O)O[C@H]3CCOC3)CC2)c2cc(F)ccc21 (stereo partly drawn) [compound 47]	xxx (activity was measured to be less than 0.1 μM)	65 to 85%	xx (activity was measured to be between 0.1 μM and 1.0 μM)	65 to 85%					
